The source of these data is PMC6636782 (PLoS Neglected Tropical Diseases, 2019).

In one test the target is T1, HLA-B*07:02 (Homo sapiens, UniProt P01889).
T1 construct: expressed in transfected cells; host or cells: RMA-S (TAP-deficient) cells transfected with HLA-B*07:02
The test is described as follows: cell-based.

Test [1] deals with CD4^+ T cell activation, HLA-DRB1*04:04 transgenic mice splenocytes. The class given is cell-based. The note with it: acute response to rVACV-CHIKV, listed as CHIKV E2_133-145.
For a further test, the target named is HLA-C*07:02 (Homo sapiens, UniProt P10321).

“Also recorded” adds a separate entry of the source. Residues, ends and D or L forms follow the SMILES beside them.

Usually EC50 stands for the concentration needed to bring the measured effect to its halfway point. Read a low EC50 as an effect from little substance. With `CC[C@H](C)[C@H](NC(=O)[C@@H](NC(=O)[C@@H]1CCCN1C(=O)[C@H](CCCNC(=N)N)NC(=O)[C@@H]1CCCN1C(=O)[C@@H](NC(=O)[C@H](Cc1c[nH]c2ccccc12)NC(=O)[C@@H]1CCCN1C(=O)[C@@H](N)CCCNC(=N)N)[C@@H](C)O)[C@@H](C)O)C(=O)O` (H-RPWTPRPTI-OH), the response on HLA-B*07:02 was half-maximal at 6 ± 6 µM (EC50).

PPVIGREKFHSRP: the “recognition of peptide-pulsed cells by spleen cells” value in test [1] was “specifically recognized; also recorded: presented and recognized as an epitope bound to DRB1*04:04”. On to YEHVTVIPNTVGVPYK, for which the “detection in HLA-bound peptide pool” value at HLA-C*07:02 was “most likely a HLA-C*07:02 ligand”.
